16 compounds from PubChem BioAssay (NCI) can be followed below.

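Test compounds were applied to cells in 96-well plates for 48 hours at 5 doses. GI50: concentration for 50% inhibition of growth. Definition used: TGI = concentration required for complete inhibition of growth.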 Some results are limits rather than exact numbers.

Some test systems named below: A498 renal; SW-620 colon; DLD-1 colon; SK-MEL-28 melanoma; HCT-15 colon; LXFL 529 NSCLC; M14 melanoma; SNB-78 CNS; KM20L2 colon; MDA-MB-231 breast; BT-549 breast; 786-0 renal; MDA-N.
Holding throughout (assay): NCI anticancer screen, dose series, 48 h

Turning to `O=C(CSSCC(=O)OCCS(=O)(=O)Nc1ccc(Br)cc1)OCCS(=O)(=O)Nc1ccc(Br)cc1`, the TGI was 39.8 µM in the assay with A498 renal; 44.2 µM in the assay with SW-620 colon; greater than 100 µM in the assay with DLD-1 colon; 96.4 µM in the assay with SK-MEL-28 melanoma; 48.5 µM in the assay on HCT-15 colon; 34.1 µM in the assay with LXFL 529 NSCLC. Moreover, the TGI in the assay with M14 melanoma was 39.1 µM; in the assay with SNB-78 CNS, 71.3 µM; in the assay on KM20L2 colon, greater than 100 µM.

Consider `O=S(=O)(O)c1ccc2c(N=Nc3ccccc3)c(O)ccc2c1`, for which the TGI in the assay on A498 renal, with MDA-MB-231 breast, in the assay with SW-620 colon, in the assay on BT-549 breast, in the assay on 786-0 renal and with SK-MEL-28 melanoma was greater than 100 µM each time. The TGI with HCT-15 colon, with MDA-N and in the assay on M14 melanoma was greater than 100 µM each time.

For the compound `Cc1cc2c(cc1Cl)SC(c1ccccc1O)NS2(=O)=O` (configuration not stated), the TGI is greater than 100 µM in the assay with A498 renal; greater than 100 µM with MDA-MB-231 breast; 42.5 µM with SW-620 colon; greater than 100 µM in the assay with BT-549 breast; greater than 100 µM with 786-0 renal; greater than 100 µM in the assay on SK-MEL-28 melanoma. Also, the TGI with HCT-15 colon and in the assay with M14 melanoma was greater than 100 µM each time.

With `C/C(=C\C(=N\NC(=N)N)c1ccccc1)c1ccccc1`, the TGI in the assay on SW-620 colon amounted to 1.73 µM; in the assay on 786-0 renal it was 11.3 µM; in the assay with SK-MEL-28 melanoma, 8.86 µM; with HCT-15 colon it was 14.7 µM; in the assay with MDA-N it was 2.7 µM; in the assay with M14 melanoma it was 2.47 µM.

On to `O=C(O)CCCN=C(C1=C(O)C(=O)N(c2ccccc2)C1=O)c1ccccc1`, for which the TGI with MDA-MB-231 breast, in the assay on SW-620 colon, with BT-549 breast, in the assay with 786-0 renal, in the assay with SK-MEL-28 melanoma and with HCT-15 colon was greater than 100 µM in each case. Also, the TGI in the assay on MDA-N and in the assay on M14 melanoma was greater than 100 µM in each case.

As for `CC(C)(C)c1cc(-c2nc3ccc(N4CCN(CCO)CC4)cc3[nH]2)cc(C(C)(C)C)c1O`, the GI50 in the assay with A498 renal was 6.1 µM; in the assay with SK-MEL-28 melanoma it was 1.68 µM; in the assay on HCT-15 colon it was 1.55 µM. For the same compound, the results for the TGI in the assay with A498 renal, with SK-MEL-28 melanoma and in the assay with HCT-15 colon were greater than 100 µM, 3.1 µM and 3.05 µM, respectively.

Regarding `Cc1cn(Cc2cn(CC3OC(n4cc(C)c(=O)[nH]c4=O)CC3O)nn2)c(=O)[nH]c1=O` (configuration not stated), the TGI with A498 renal, in the assay with MDA-MB-231 breast, in the assay with SW-620 colon, with BT-549 breast, with SK-MEL-28 melanoma and in the assay with HCT-15 colon was greater than 100 µM in each case. For the same compound, the TGI with MDA-N and in the assay on M14 melanoma was greater than 100 µM throughout.

On to `N=C(N)c1ccc(N=Nc2c(O)ccc3cc4c(N=Nc5ccc(C(=N)N)cc5)c(O)ccc4cc23)cc1`, for which the TGI in the assay with MDA-MB-231 breast, in the assay with SW-620 colon, in the assay on BT-549 breast, in the assay on 786-0 renal, in the assay with SK-MEL-28 melanoma and in the assay on HCT-15 colon was greater than 100 µM each time. Also, the TGI with MDA-N and in the assay with M14 melanoma was greater than 100 µM throughout.

On to `Cn1c(=O)ccc2c(=O)c3ccccc3oc21`, for which the TGI with A498 renal, with MDA-MB-231 breast, in the assay with SW-620 colon, in the assay on SK-MEL-28 melanoma, in the assay with HCT-15 colon and in the assay on MDA-N was greater than 100 µM throughout. For the same compound, in the assay on M14 melanoma, the TGI was greater than 100 µM.

`O=c1c(-c2ccccc2)c(SCCN2CCOCC2)n(-c2ccccc2)c(=S)n1-c1ccccc1`: the TGI in the assay on A498 renal, with MDA-MB-231 breast, in the assay on SW-620 colon, in the assay with BT-549 breast, with SK-MEL-28 melanoma and in the assay on HCT-15 colon was greater than 100 µM throughout.

Consider `Cc1cc(=O)n2c3c(c4c(cc13)c(CN(C)C)cc(=O)n4C)OC2`, for which the TGI with A498 renal was greater than 100 µM; in the assay on MDA-MB-231 breast, 98.7 µM; in the assay with SW-620 colon it was greater than 82.3 µM; in the assay on BT-549 breast, 83.8 µM; in the assay on 786-0 renal it was greater than 100 µM; with SK-MEL-28 melanoma, greater than 85.8 µM. Also, the TGI was greater than 56.7 µM with HCT-15 colon, greater than 87.7 µM in the assay with MDA-N and 31.2 µM in the assay on M14 melanoma.

As for `COc1cccc(NC(=O)CC(=O)NN2C(=O)/C(=C/c3ccc(N(CCC#N)CCC#N)cc3)N=C2c2cc([N+](=O)[O-])ccc2Cl)c1`, the TGI in the assay on SW-620 colon, with DLD-1 colon, in the assay with SK-MEL-28 melanoma, with HCT-15 colon, with LXFL 529 NSCLC and in the assay on M14 melanoma was greater than 100 µM throughout. Besides, the TGI in the assay on SNB-78 CNS and with KM20L2 colon was greater than 100 µM throughout.

As to `Cn1cc(-c2nnc(-c3ccc(Cl)cc3)[nH]c2=O)c2ccccc21`, the TGI with A498 renal is greater than 61 µM; with MDA-MB-231 breast, greater than 84.9 µM; in the assay on SW-620 colon, greater than 64.6 µM; with BT-549 breast, greater than 100 µM; in the assay with 786-0 renal it was greater than 44.6 µM; with SK-MEL-28 melanoma, greater than 100 µM. Further, the results for the TGI in the assay with HCT-15 colon, in the assay on MDA-N and with M14 melanoma were greater than 100 µM, 1.83 µM and greater than 100 µM, respectively.

Turning to `C=C1CC2C3C=C(C)C4=CC(=O)CC[C@]4(C)C3CC[C@]2(C)[C@@]1(OC(C)=O)C(C)=O` (some centres not stated), in the assay on A498 renal, the GI50 was greater than 100 µM and the TGI is greater than 100 µM.

As for `CCOC(=O)/C(=C\NC(C)(C)CO)c1nc2ccccc2[nH]1`, the TGI with A498 renal, in the assay on SW-620 colon, in the assay with BT-549 breast, in the assay on 786-0 renal, in the assay with SK-MEL-28 melanoma and with HCT-15 colon was greater than 100 µM throughout. Besides, the TGI in the assay on MDA-N and in the assay with M14 melanoma was greater than 100 µM each time.

Consider `Cc1ccc(C(=O)Nc2ncn(C3CC(O)C(CO)O3)c(=O)n2)cc1` (configuration not stated), for which the TGI in the assay on A498 renal, in the assay on SW-620 colon, in the assay on DLD-1 colon, with SK-MEL-28 melanoma, with HCT-15 colon and in the assay with SNB-78 CNS was greater than 100 µM each time.
